The text below walks through data of patent publication US20100292231A1, “Indazole Compounds for Treating Inflammatory Disorders, Demyelinating Disorders and Cancers” (priority 2007, published 2010).

Holding throughout (assay): MTS cellular proliferation assay
What all share (assay type): cell-based
A general note: Formazan colour is commonly taken as a measure of viable cells.

One assay concerns the target T1, BaF3-D835Y (Homo sapiens, UniProt P36888, D835Y, cells depend on it).
T1 sequence (P36888 1-993 D835Y): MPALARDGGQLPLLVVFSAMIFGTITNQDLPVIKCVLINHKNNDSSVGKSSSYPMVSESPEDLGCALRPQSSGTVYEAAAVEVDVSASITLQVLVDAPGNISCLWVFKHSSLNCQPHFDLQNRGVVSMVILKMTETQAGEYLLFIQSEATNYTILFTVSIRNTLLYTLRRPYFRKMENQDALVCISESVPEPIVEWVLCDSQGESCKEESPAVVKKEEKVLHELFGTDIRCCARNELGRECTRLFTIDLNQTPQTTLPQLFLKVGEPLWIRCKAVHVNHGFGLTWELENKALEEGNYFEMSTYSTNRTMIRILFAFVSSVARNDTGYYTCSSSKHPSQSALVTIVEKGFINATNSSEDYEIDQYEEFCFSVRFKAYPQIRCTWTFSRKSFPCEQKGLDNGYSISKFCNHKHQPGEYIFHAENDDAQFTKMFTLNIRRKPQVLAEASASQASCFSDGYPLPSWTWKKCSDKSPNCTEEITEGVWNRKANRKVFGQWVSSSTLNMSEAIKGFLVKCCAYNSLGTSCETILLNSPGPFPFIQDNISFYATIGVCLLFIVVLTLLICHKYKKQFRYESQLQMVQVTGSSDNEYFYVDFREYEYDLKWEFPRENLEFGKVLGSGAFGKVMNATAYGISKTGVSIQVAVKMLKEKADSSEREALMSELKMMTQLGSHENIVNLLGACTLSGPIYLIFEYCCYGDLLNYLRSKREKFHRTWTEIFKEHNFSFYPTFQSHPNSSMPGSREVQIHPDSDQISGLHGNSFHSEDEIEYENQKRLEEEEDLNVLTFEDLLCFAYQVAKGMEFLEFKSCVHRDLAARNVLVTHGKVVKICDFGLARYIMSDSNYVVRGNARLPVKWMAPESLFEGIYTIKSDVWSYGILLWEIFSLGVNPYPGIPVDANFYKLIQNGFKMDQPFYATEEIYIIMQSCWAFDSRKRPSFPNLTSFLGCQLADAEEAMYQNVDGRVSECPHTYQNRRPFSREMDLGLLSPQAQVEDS
The conditions noted are these: 72 hour incubation, read-out: Growth inhibitory activity (in vivo EC50 nM). From the text: (§1) The viability of Flt3 expressing cells can be evaluated using a tetrazolium salt reduction cell-based assay. […] BaF3, both wild type and mutant, as well as transfected strains, MV4-11 and MOLM14 are well-characterized Flt3-dependent humanized or human cell lines which express active Flt3 receptors (see, Yee et al. Blood (2002)100 (8):2941-2949; Levis et al. (2002) 99(11): 3885-3891). These cell lines were used to determine the ability of the compounds provided herein to inhibit Flt3 in intact cells. In each case, and by methods known to those practiced in the art of cell culture, proliferation was measured after 72 hour incubation with the compounds provided herein using a standard MTS protocol (Promega Cat #5430 “Cell Titer 96 Aqueous Non-radioactive Cell Proliferation Assay”).
(§2) In general, cells were plated at 10,000-20,000 cells per well in DMEM medium with 0.5% serum. The compound plate was set up by aliquoting into column 1 of a 96 well 300 ul polypropylene plate, the negative control (DMSO), aliquoting into column 12 the positive control and titrating the test compound in serial dilutions into columns 2-1 l. An aliquot from each well of the compound plate was transferred to the plated cells and then incubated @ […] in 5% CO2. [00538] MTS tetrazolium compound (Owen's reagent) was thawed in a H2O bath. 20 μl of MTS tetrazolium was added to each well of optical plate and the cells were incubated @ 37° C. in 5% CO2 for 2 hours. The absorbance measured at 490 nm using a microplate reader.

The next assay has as its system BaF3-FLT3-WT + IL-3. Conditions: 72 hour incubation, read-out: Growth inhibitory activity (in vivo EC50 nM).
From the text: as §1, §2

A further assay has as its target T2, BaF3-ITD (Homo sapiens, UniProt P36888, cells depend on it, form not given).
T2 sequence (P36888 1-993): T1 sequence (P36888 1-993 D835Y) with Y835D
The conditions noted are these: 72 hour incubation, read-out: Growth inhibitory activity (in vivo EC50 nM).
From the text: as §1, §2

The next assay concerns MOLM14. Conditions: Homo sapiens, MOLM-14, 72 hour incubation, read-out: Growth inhibitory activity (in vivo EC50 nM).
From the text: as §1, §2

Residue numbers refer to the chain shown, from its start.

As for `CN(C)CCCCCNc1ccc2ncn3c4ccc5[nH]ncc5c4c(=O)c1c23` [(III)], the results for the EC50 on BaF3-D835Y and on BaF3-ITD were 887 nM and 223 nM, respectively. The IC50 in the assay with BaF3-FLT3-WT + IL-3 is 752 nM.

For `CN(C)c1ccc2ncn3c4ccc5[nH]ncc5c4c(=O)c1c23` [(IX)], the EC50 turned out to be 723 nM at BaF3-D835Y, 80 nM on BaF3-ITD and 82 nM in the assay on MOLM14. Also, in the assay with BaF3-FLT3-WT + IL-3, the IC50 is > 2000 nM.

Regarding `CCN(CC)c1ccc2ncn3c4ccc5[nH]ncc5c4c(=O)c1c23` [(VI)], the EC50 on BaF3-D835Y came out at 171 nM; at BaF3-ITD, 74 nM; with MOLM14, 84 nM. The IC50 in the assay with BaF3-FLT3-WT + IL-3 was 1390 nM.

Take `CNc1ccc2ncn3c4ccc5[nH]ncc5c4c(=O)c1c23` [(VII)]: the EC50 on BaF3-D835Y is 158 nM; on BaF3-ITD, 36 nM; in the assay with MOLM14, 60 nM. For the same compound, the IC50 in the assay with BaF3-FLT3-WT + IL-3 was determined as 356 nM.

Consider `CCN(CC)CCNc1ccc2ncn3c4ccc5[nH]ncc5c4c(=O)c1c23` [(VIII)], for which the concentration for a half-maximal effect (EC50) was determined as 129 nM on BaF3-D835Y, 30 nM at BaF3-ITD and 627 nM in the assay with MOLM14. In the assay with BaF3-FLT3-WT + IL-3, the IC50 stood at 341 nM.

As to `O=c1c2c(NCCCN3CCOCC3)ccc3ncn(c4ccc5[nH]ncc5c14)c32` [(X)], the results for the EC50 on BaF3-D835Y, on BaF3-ITD and with MOLM14 were 79 nM, 35 nM and 90 nM, respectively. For the same compound, in the assay on BaF3-FLT3-WT + IL-3, the IC50 was found to be 492 nM.

As for `CN(C)CCCNc1ccc2ncn3c4ccc5[nH]ncc5c4c(=O)c1c23` [Compound (IV)], the EC50 at BaF3-D835Y stood at 13 nM; at BaF3-ITD, 20 nM. In the assay with BaF3-FLT3-WT + IL-3, the IC50 was found to be 6 nM.

Regarding `O=c1c2c(NCCN3CCOCC3)ccc3ncn(c4ccc5[nH]ncc5c14)c32` [Compound (V)], the results for the EC50 on BaF3-D835Y, on BaF3-ITD and in the assay on MOLM14 were 172 nM, 90 nM and 333 nM, respectively. Besides, in the assay on BaF3-FLT3-WT + IL-3, the IC50 came to 246 nM.

Regarding `CCN(CC)CCNc1ccc2ncn3c4ccc(O)cc4c(=O)c1c23` [Symadex, 5-(2-(diethylamino)ethylamino)-8-hydroxy-6H-imidazo[4,5,1-de]acridin-6-one, reference compound], the EC50 was determined as 8.9 nM at BaF3-D835Y and 11.2 nM at BaF3-ITD. Also, the IC50 in the assay with BaF3-FLT3-WT + IL-3 is 13.2 nM.

A word on the EC50: it is the concentration giving half of the maximal effect.
